# Tests used:
# FAAH = target: T1, FAAH (Mus musculus, UniProt O08914); assay: In vitro competitive activity-based protein profiling (mouse), FAAH gel band; format: biochemical; details: for inhibition at 1 µM: read-out: FAAH % inh. 1 μM; for IC50: mouse
# T1 construct: Proteomes (mouse brain membrane fraction or cell lysates); from tissue; host or cells: mouse brain membrane fraction (or cell lysates)
# T1 sequence (O08914 1-579): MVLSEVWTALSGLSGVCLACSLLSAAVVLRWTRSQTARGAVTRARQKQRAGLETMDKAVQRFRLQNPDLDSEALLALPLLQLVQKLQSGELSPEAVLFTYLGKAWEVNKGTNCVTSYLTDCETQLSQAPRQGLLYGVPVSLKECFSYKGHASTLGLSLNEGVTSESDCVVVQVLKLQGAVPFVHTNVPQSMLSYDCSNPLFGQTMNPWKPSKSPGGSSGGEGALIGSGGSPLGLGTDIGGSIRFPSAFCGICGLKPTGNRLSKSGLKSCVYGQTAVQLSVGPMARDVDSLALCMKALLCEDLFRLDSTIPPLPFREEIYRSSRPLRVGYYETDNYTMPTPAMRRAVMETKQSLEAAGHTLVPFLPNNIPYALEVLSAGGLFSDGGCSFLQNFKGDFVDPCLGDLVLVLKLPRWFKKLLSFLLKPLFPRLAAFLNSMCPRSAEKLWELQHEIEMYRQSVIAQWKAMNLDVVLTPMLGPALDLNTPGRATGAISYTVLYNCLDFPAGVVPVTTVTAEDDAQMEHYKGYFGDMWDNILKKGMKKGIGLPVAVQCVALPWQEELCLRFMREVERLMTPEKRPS
# Method: (§1) In Vitro Competitive Activity-Based Protein Profiling (Mouse).
# (§2) Proteomes (mouse brain membrane fraction or cell lysates) (50 μL, 1.0 mg/mL total protein concentration) were preincubated with varying concentrations of inhibitors at 37° C. After 30 min, FP-Rh or HT-01 (1.0 μL, 50 μM in DMSO) was added and the mixture was incubated for another 30 min at 37° C. Reactions were quenched with SDS loading buffer (15 μL—4×) and run on SDS-PAGE. Following gel imaging, serine hydrolase activity was determined by measuring fluorescent intensity of gel bands corresponding to MAGL, ABHD6, and FAAH, using ImageJ 1.43u software.
# MAGL = target: T2, MAGL (Mus musculus, UniProt O35678); assay: In vitro competitive activity-based protein profiling (mouse), MAGL gel band; format: biochemical; details: for inhibition at 1 µM: read-out: MAGL % inh. 1 μM; for IC50: mouse
# T2 construct: Proteomes (mouse brain membrane fraction or cell lysates); from tissue; host or cells: mouse brain membrane fraction (or cell lysates)
# T2 sequence (O35678 1-303): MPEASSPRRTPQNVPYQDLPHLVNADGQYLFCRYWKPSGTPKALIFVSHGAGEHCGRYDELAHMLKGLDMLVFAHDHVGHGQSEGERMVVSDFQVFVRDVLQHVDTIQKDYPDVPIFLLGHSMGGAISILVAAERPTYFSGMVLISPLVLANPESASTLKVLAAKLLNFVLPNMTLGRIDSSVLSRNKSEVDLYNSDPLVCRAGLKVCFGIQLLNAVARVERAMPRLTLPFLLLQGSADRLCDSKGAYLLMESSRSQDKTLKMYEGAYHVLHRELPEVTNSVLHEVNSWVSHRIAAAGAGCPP
# Method: as §1, §2
SMILES,inhibition at 1 µM (FAAH) [%],inhibition at 1 µM (MAGL) [%],IC50 (FAAH) [µM],IC50 (MAGL) [µM]
"CS(=O)(=O)Nc1ccn(C(=O)N2CCN(Cc3cc(C(F)(F)F)cc(C(F)(F)F)c3)CC2)n1 [Example 177, N-(1-(4-(3,5-bis(trifluoromethyl)benzyl)piperazine-1-carbonyl)-1H-pyrazol-3-yl) methanesulfonamide]",0 to 25,≥ 75,,
"CS(=O)(=O)Nc1ccn(C(=O)N2CCC3(CCCN3Cc3cc(N4CCOCC4)cc(C(F)(F)F)c3)CC2)n1 [Example 162, N-(1-(1-(3-morpholino-5-(trifluoromethyl)benzyl)-1,8-diazaspiro[4.5]decane-8-carbonyl)-1H-pyrazol-3-yl) methanesulfonamide]",0 to 25,≥ 75,,
"CC(=O)Nc1ccn(C(=O)N2CCC3(CCCN3Cc3cc(Cl)cc(N4C5CCC4COC5)c3)CC2)n1 [Example 64, N-(1-(1-(3-(3-oxa-8-azabicyclo[3.2.1]octan-8-yl)-5-chlorobenzyl)-1,8-diazaspiro[4.5]decane-8-carbonyl)-1H-pyrazol-3-yl)acetamide]",0 to 25,≥ 75,1 to 10,≤ 0.1
"CS(=O)(=O)Nc1ccn(C(=O)N2CCN(Cc3ccc(C(F)(F)F)c(N4CCN5CCC[C@@H]5C4)c3)CC2)n1 [Example 278, (R)-N-(1-(4-(3-(hexahydropyrrolo[1,2-a]pyrazin-2(1H)-yl)-4-(trifluoromethyl)benzyl)piperazine-1-carbonyl)-1H-pyrazol-3-yl) methanesulfonamide]",0 to 25,≥ 75,,
"CC(=O)Nc1ccn(C(=O)N2CCN(Cc3ccc(C(F)(F)F)cc3N3CCN(CC(=O)O)CC3)CC2)n1 [Example 277, 2-(4-(2-((4-(3-acetamido-1H-pyrazole-1-carbonyl)piperazin-1-yl)methyl)-5-(trifluoromethyl)phenyl)piperazin-1-yl)acetic acid]",0 to 25,≥ 75,,
"CC(=O)Nc1ccn(C(=O)N2CCN(Cc3ccc(C(F)(F)F)cc3N3CCC(NC(C)=O)CC3)CC2)n1 [Example 275, N-(1-(2-((4-(3-acetamido-1H-pyrazole-1-carbonyl)piperazin-1-yl)methyl)-5-(trifluoromethyl)phenyl)piperidin-4-yl)acetamide]",0 to 25,≥ 75,,
"CC(=O)N1CCN(c2cc(CN3CCN(C(=O)n4ccc(NS(C)(=O)=O)n4)CC3)cc(C(F)(F)F)c2)CC1 [Example 251, N-(1-(4-(3-(4-acetylpiperazin-1-yl)-5-(trifluoromethyl)benzyl)piperazine-1-carbonyl)-1H-pyrazol-3-yl) methanesulfonamide]",0 to 25,25 to 50,,
"CC(C)(O)C1CCN(c2cc(CN3CCN(C(=O)n4ccc(NS(C)(=O)=O)n4)CC3)ccc2C(F)(F)F)CC1 [Example 280, N-(1-(4-(3-(4-(2-hydroxypropan-2-yl)piperidin-1-yl)-4-(trifluoromethyl)benzyl)piperazine-1-carbonyl)-1H-pyrazol-3-yl) methanesulfonamide]",0 to 25,≥ 75,,
"CC(=O)Nc1ccn(C(=O)N2CCC3(CCCN3Cc3ccc(N4CCOCC4)c(Cl)c3)CC2)n1 [Example 99, N-(1-(1-(3-chloro-4-morpholinobenzyl)-1,8-diazaspiro[4.5]decane-8-carbonyl)-1H-pyrazol-3-yl)acetamide]",0 to 25,≥ 75,1 to 10,0.1 to 1
"CS(=O)(=O)Nc1ccn(C(=O)N2CCC3(CCCN3Cc3ccc(C(F)(F)F)cc3N3CCC(C(=O)O)CC3)CC2)n1 [Example 243, 1-(2-((8-(3-(methylsulfonamido)-1H-pyrazole-1-carbonyl)-1,8-diazaspiro[4.5]decan-1-yl)methyl)-5-(trifluoromethyl)phenyl)piperidine-4-carboxylic acid]",0 to 25,0 to 25,,
"CS(=O)(=O)Nc1ccn(C(=O)N2CCN(Cc3ccc(C(F)(F)F)c(N4CCCC4)c3)CC2)n1 [Example 153, N-(1-(4-(3-(pyrrolidin-1-yl)-4-(trifluoromethyl)benzyl)piperazine-1-carbonyl)-1H-pyrazol-3-yl) methanesulfonamide]",0 to 25,≥ 75,,
"CC(=O)Nc1ccn(C(=O)N2CCC3(CCCN3Cc3ccc(C(F)(F)F)cc3N3CCN(S(C)(=O)=O)CC3)CC2)n1 [Example 21, N-(1-(1-(2-(4-(methylsulfonyl)piperazin-1-yl)-4-(trifluoromethyl)benzyl)-1,8-diazaspiro[4.5]decane-8-carbonyl)-1H-pyrazol-3-yl)acetamide]",0 to 25,≥ 75,1 to 10,0.1 to 1
"CS(=O)(=O)Nc1ccn(C(=O)N2CCN(Cc3cc(N4CCOCC4)cc(C(F)(F)F)c3)CC2)n1 [Example 155, N-(1-(4-(3-morpholino-5-(trifluoromethyl)benzyl)piperazine-1-carbonyl)-1H-pyrazol-3-yl) methanesulfonamide]",0 to 25,≥ 75,,
"Cc1ccc(CN2CCN(C(=O)n3ccc(NS(C)(=O)=O)n3)CC2)c(N2CCCCC2)c1 [Example 138, N-(1-(4-(4-methyl-2-(piperidin-1-yl)benzyl)piperazine-1-carbonyl)-1H-pyrazol-3-yl) methanesulfonamide]",0 to 25,≥ 75,1 to 10,0.1 to 1
"CN1CCN(c2c(Cl)cccc2CN2CCN(C(=O)n3ccc(NS(C)(=O)=O)n3)CC2)CC1 [Example 225, N-(1-(4-(3-chloro-2-(4-methylpiperazin-1-yl)benzyl)piperazine-1-carbonyl)-1H-pyrazol-3-yl) methanesulfonamide]",0 to 25,0 to 25,,
"O=C(CO)Nc1ccn(C(=O)N2CCN(Cc3cccc(Oc4ccccc4)c3)CC2)n1 [Example 92, 2-hydroxy-N-(1-(4-(3-phenoxybenzyl)piperazine-1-carbonyl)-1H-pyrazol-3-yl)acetamide]",≥ 75,≥ 75,,
"CC(=O)Nc1ccn(C(=O)N2CCN(Cc3ccc(C(F)(F)F)c(-c4nnn[nH]4)c3)CC2)n1 [Example 222, N-(1-(4-(3-(1H-tetrazol-5-yl)-4-(trifluoromethyl)benzyl)piperazine-1-carbonyl)-1H-pyrazol-3-yl)acetamide]",0 to 25,≥ 75,1 to 10,≤ 0.1
"CS(=O)(=O)Nc1ccn(C(=O)N2CCN(Cc3ccc(Cl)c(N4CCN(S(C)(=O)=O)CC4)c3)CC2)n1 [Example 282, N-(1-(4-(4-chloro-3-(4-(methylsulfonyl)piperazin-1-yl)benzyl)piperazine-1-carbonyl)-1H-pyrazol-3-yl) methanesulfonamide]",0 to 25,≥ 75,,
"CS(=O)(=O)Nc1ccn(C(=O)N2CCN(Cc3cc(N4CCOCC4)ccc3C(F)(F)F)CC2)n1 [Example 181, N-(1-(4-(5-morpholino-2-(trifluoromethyl)benzyl)piperazine-1-carbonyl)-1H-pyrazol-3-yl) methanesulfonamide]",0 to 25,50 to 75,,
"CS(=O)(=O)Nc1ccn(C(=O)N2CCN(Cc3cc(N4CCN(S(C)(=O)=O)CC4)cc(C(F)(F)F)c3)CC2)n1 [Example 254, N-(1-(4-(3-(4-(methylsulfonyl)piperazin-1-yl)-5-(trifluoromethyl)benzyl)piperazine-1-carbonyl)-1H-pyrazol-3-yl) methanesulfonamide]",0 to 25,25 to 50,,
"CC(=O)Nc1ccn(C(=O)N2CCC3(CCCN3Cc3ccc(C(F)(F)F)cc3OC3CCS(=O)(=O)CC3)CC2)n1 [Example 87, N-(1-(1-(2-((1,1-dioxidotetrahydro-2H-thiopyran-4-yl)oxy)-4-(trifluoromethyl)benzyl)-1,8-diazaspiro[4.5]decane-8-carbonyl)-1H-pyrazol-3-yl)acetamide]",25 to 50,≥ 75,1 to 10,0.1 to 1
"CS(=O)(=O)Nc1ccn(C(=O)N2CCN(Cc3ccc(C(F)(F)F)c(C4CCN(CC(=O)O)CC4)c3)CC2)n1 [Example 119, 2-(4-(5-((4-(3-(methylsulfonamido)-1H-pyrazole-1-carbonyl)piperazin-1-yl)methyl)-2-(trifluoromethyl)phenyl)piperidin-1-yl)acetic Acid]",,,,≤ 0.1
